Numbers after ± are expanded uncertainties.
Conditions: Liquid; for mass density: 298.15 K, 101.33 kPa, Vibrating tube method

Compound	mass density	vapor or sublimation pressure (329.69 K)	vapor or sublimation pressure (336.07 K)	vapor or sublimation pressure (341.23 K)	vapor or sublimation pressure (345.6 K)	vapor or sublimation pressure (349.39 K)	vapor or sublimation pressure (351.44 K)	vapor or sublimation pressure (408.31 K)	vapor or sublimation pressure (417.74 K)	vapor or sublimation pressure (425.39 K)	vapor or sublimation pressure (431.86 K)	vapor or sublimation pressure (437.53 K)	vapor or sublimation pressure (440.57 K)	vapor or sublimation pressure (379.81 K)	vapor or sublimation pressure (388.96 K)	vapor or sublimation pressure (396.45 K)	vapor or sublimation pressure (402.82 K)	vapor or sublimation pressure (408.4 K)	vapor or sublimation pressure (411.48 K)
CCO [ethanol]	785.18 ± 0.15 kg/m3	40 ± 1.5 kPa	53.33 ± 2 kPa	66.66 ± 2.4 kPa	79.99 ± 2.8 kPa	93.32 ± 3.2 kPa	101.3 ± 3.4 kPa												
CCCCCC(=O)OCC [ethyl hexanoate]	865.59 ± 0.11 kg/m3							40 ± 1.5 kPa	53.33 ± 2 kPa	66.66 ± 2.4 kPa	79.99 ± 2.8 kPa	93.32 ± 3.2 kPa	101.3 ± 3.4 kPa						
Cc1ccc(C)cc1 [1,4-dimethylbenzene]	856.68 ± 0.12 kg/m3													40 ± 1.5 kPa	53.33 ± 2 kPa	66.66 ± 2.4 kPa	79.99 ± 2.8 kPa	93.32 ± 3.2 kPa	101.3 ± 3.4 kPa
